Reference: patent publication US6849576B2, “Plant-activating agent” (Kao Corporation, priority 2000, dated 2005)

What follows are molecules tested on liverwort callus cells (assay: Reproduction of green cells: liverwort callus cultivation, fresh weight at 10th day). Conditions: liverwort callus fresh weight at 10th day (240 hours); relative value, control area = 100; concentrations (ppm) as in Table 7.
Assay type: cell-based, liverwort (Harchantia polymorpha L.)
Method: (§1) In case of a unicellular organism, an individual of this organism can be used itself as a green cell. […] When chlorella is used, a test substance acting as a plant-activating agent is added to an inorganic salt medium for chlorella (test area), and the number of cells (cells/ml) when cultivation is conducted for a certain period can be compared with the number of cells (cells/ml) in the non-added system cultivated under the same condition (control area), for calculation. Further, cells in the form of callus can also be used. As the callus, a liverwort (Harchantia polymorpha L.) callus may be exemplified. When a callus is used, the test substance acting as a plant-activating agent is added to e.g. a sterilized medium for calluses (test area), and the weight of callus when cultivation is conducted for a certain period can be compared with the weight of callus of the non-added system cultivated under the same condition (control area), for calculation. In any case, the concentration of the test substance in the test area is not limited but suitably from 0.1 to 1000 ppm in terms of effective components.
100 ml of the medium (MSK2 medium) for liverworts were placed into a 500-ml Erlenmeyer flask, and the flask was capped with a silicon cap having its ventilative property and placed into an autoclave (at a high temperature, under a high pressure, and a sterilized oven) to sterilize the medium (for 20 minutes). Herein, the substance acting as the plant-activating agent was added in a concentration shown in Table 7 into a culturing solution in the test area. After sterilization, the temperature of the medium was returned to a normal temperature. 2 ml of liverwort callus cells under a steady state, which had been sub-cultivated previously, were sucked up by a 2-ml Komagome pipette (measuring pipet) and incubated to the sterilized medium. These operations are conducted in a clean bench when sterilized condition is necessary. Cultivation is carried out in a shaking incubator rotating at 110 rpm at 23° C. under continuous illumination (with illuminance of 10 klx.) with carbon dioxide and humidity under natural conditions. Tenth day (after 240 hours) after starting the cultivation, the whole culturing solution in each area was filtrated under suction, and the fresh weight (raw weight) (g) of the callus cell was measured. This was made as the amount in reproduction of green cells, and the improved degree in reproduction of green cells was measured by the above-described formula.
With `Cc1ncc(CO)c(CO)c1O` [Inventive product 5-18, Vitamin B6] the “Improved degree in reproduction of green cells” value (“Improved degree in reproduction” below) was 107. `CC(C)C[C@H](N)C(=O)O` [Inventive product 5-20, L-leucine] was tested, and the “Improved degree in reproduction” value was 110. In the case of `O=C(O)C(O)C(O)C(=O)O` (stereo not drawn) [Inventive product 5-21, Tartaric acid], the “Improved degree in reproduction” value is reported as 110. In the case of `O=C(O)CCCC[C@@H]1SC[C@@H]2NC(=O)N[C@@H]21` [Inventive product 5-24, Biotin], the “Improved degree in reproduction” value is reported as 106. For “Citric acid monostearate [Inventive product 5-7]”, the “Improved degree in reproduction” value was 135. “POE(1) stearyl ether [Inventive product 5-11]” was tested, and the “Improved degree in reproduction” value was 133. In the case of “POE(20) sorbitan oleate [Comparative product 5-1, reference compound]”, the “Improved degree in reproduction” value is reported as 72. For “Stearic acid diglyceride [Inventive product 5-13]”, the “Improved degree in reproduction” value was 126. For “Stearic acid monoglyceride [Inventive product 5-23]”, the “Improved degree in reproduction” value was 118. Vitamin B12 [Inventive product 5-19] was tested, and the “Improved degree in reproduction” value was 108.

These molecules were tested on Chlorella vulgaris (assay: Reproduction of green cells: chlorella cultivation, cell count at 8th day). Conditions: chlorella cell number at 8th day (192 hours); relative value, control area = 100; concentrations (ppm) as in Table 1.
Assay type: cell-based
Method: as §1
Herein, the substance acting as the plant-activating agent has been added in a concentration of 10 ppm in terms of effective components into a culturing solution in the test area. This substance is not added into the control area. After sterilization, the temperature of the medium is returned to a normal temperature. The number of Chlorella vulgaris which has been sub-cultivated previously is counted under a microscope using a blood cell counting chamber of Thoma, and chlorella is added to the sterilized medium so as to have a concentration of 1.0×10^5 (cells/ml). These operations are conducted in a clean bench when the sterilized condition is necessary. Cultivation is carried out in a shaking incubator rotating at 110 rpm at 23° C. under continuous illumination (with illuminance of 10 klx.) with carbon dioxide and humidity under natural conditions.
This measurement is repeated five times in each area, and the average values (P0, P1) are made as the number of chlorella after cultivation.
With `O=C([O-])CCC(=O)[O-].[Na+].[Na+]` [Comparative product 1-2, Sodium succinate, reference compound] the “Improved degree in reproduction” value was 90. `O=C([O-])CN(CCN(CC(=O)[O-])CC(=O)[O-])CC(=O)[O-].[Na+].[Na+].[Na+].[Na+]` [Comparative product 1-3, EDTA-4Na, reference compound] was tested, and the “Improved degree in reproduction” value was 92. For `Cc1ncc(CO)c(CO)c1O` [Inventive product 1-18, Vitamin B6], the “Improved degree in reproduction” value was 118. “Citric acid monooleyl axnide [Inventive product 1-8]” was tested, and the “Improved degree in reproduction” value was 148. In the case of “POE(1) stearyl ether [Inventive product 1-11]”, the “Improved degree in reproduction” value is reported as 160. “POE(20) sorbitan oleate [Comparative product 1-1, reference compound]” was tested, and the “Improved degree in reproduction” value was 85. In the case of “Stearic acid diglyceride [Inventive product 1-13]”, the “Improved degree in reproduction” value is reported as 140. With “Stearic acid monoglyceride [Inventive product 1-23]” the “Improved degree in reproduction” value was 140. For Vitamin B12 [Inventive product 1-19], the “Improved degree in reproduction” value was 110.

Same assay, conditions: chlorella cell number at 8th day (192 hours); relative value, control area = 100; concentrations (ppm) as in Table 2
With `O=C([O-])CCC(=O)[O-].[Na+].[Na+]` [Comparative product 2-2, Sodium succinate, reference compound] the “Improved degree in reproduction” value was 92. In the case of `O=C([O-])CN(CCN(CC(=O)[O-])CC(=O)[O-])CC(=O)[O-].[Na+].[Na+].[Na+].[Na+]` [Comparative product 2-3, EDTA-4Na, reference compound], the “Improved degree in reproduction” value is reported as 90. With `CCCCCCCCCCCCCCCCCC(=O)O` [Inventive product 2-1, Stearyl acid] the “Improved degree in reproduction” value was 156. For `Cc1ncc(CO)c(CO)c1O` [Inventive product 2-16, Vitamin B6], the “Improved degree in reproduction” value was 122. For “POE(1) stearyl ether [Inventive product 2-9]”, the “Improved degree in reproduction” value was 153. With “POE(20) sorbitan oleate [Comparative product 2-1, reference compound]” the “Improved degree in reproduction” value was 80. For “Stearic acid diglyceride [Inventive product 2-11]”, the “Improved degree in reproduction” value was 136. Vitamin B12 [Inventive product 2-17] was tested, and the “Improved degree in reproduction” value was 118.
